Assay results as given in EPA's ToxValDB 9.5.
“And” between values parts separate entries of the source, which are not always exact repeats. Identical values can stand only once.

What was measured:
Mus musculus = conditions: oral
Rattus norvegicus = conditions: acute
[1] = developmental, duration: 17 days, F, CD1, Developmental: 323% increased prenatal loss, 16.7% decreased live fetuses, 24.3% decreased neonatal survival
[2] = developmental, duration: 17 days, F, Developmental: Significantly reduced pup survival (46%) from birth to weaning
[3] = reproduction developmental, duration: 17 days, M, CD1, Body Weight: 32% reduced weight gain during pregnancy
[4] = short-term, duration: 14 days, M, CD1, 6-12% decreased in body weight gain
[5] = short-term, duration: 15 days, F, Body Weight: Weight loss (~5%)
[6] = short-term, duration: 15 days, F, Immunotoxicological: Reduced sRBC-specific response to IgM antibody titers
[7] = short-term, duration: 21 days, M, ICR, Body Weight: 17% decrease in weight gain
[8] = short-term, duration: 21 days, M, ICR, Hepatic: 27% increase in relative liver weight at ?0.5 mg/kg/day / increases in ALT at ?[…] / hepatocytomegaly at 18 mg/kg/day / necrosis…
[9] = short-term, duration: 28 days, M, CD1, Hepatic: Mild hepatocellular hypertrophy at ?0.29, moderate to severe hypertrophy and single cell necrosis at ?0.96 mg/kg/day / decreased …
[10] = duration: 4 hours, inhalation, M, CD, Ocular: Corneal opacity and corrosion
[11] = duration: 15 hours, inhalation, F, Sprague-Dawley, Body Weight: 12% decrease weight gain on GDs 6-15

## O=C([O-])C(F)(F)C(F)(F)C(F)(F)C(F)(F)C(F)(F)C(F)(F)C(F)(F)F.[NH4+] [Ammonium perfluorooctanoate]
Mus musculus; developmental, duration: 1 days, M, CD1, Developmental: Decreased spontaneous activity and altered response to cholinergic stimulant
  LOAEL: 0.58 mg/kg-day
Mus musculus; developmental, duration: 10 days, F, CD1, Developmental: Altered mammary gland development in female pups / reduced pup weight on PND 20
  LOAEL: 5 mg/kg-day
Mus musculus; developmental, duration: 10 days, F, CD1, Developmental: Delayed mammary gland development (30-60%) in female pups on PNDs 1-10 + Reproductive: Immature mammary gland morphology in …
  LOAEL: 5 mg/kg-day
Mus musculus; developmental, duration: 10 days, F, CD1, Hepatic: 40-120% increased relative liver weight in lactating dams on PNDs 1-10
  NOAEL: 5 mg/kg-day
Mus musculus; developmental, duration: 11 days, F, CD1, Developmental: Delayed mammary gland development (31-47%) in female pups on PNDs 22-32 and at 18 months
  LOAEL: 5 mg/kg-day
Mus musculus; developmental, duration: 11 days, F, CD1, Developmental: Reduced pup body weight at weaning, 43% in males and 35% in females
  LOAEL: 5 mg/kg-day
Mus musculus; developmental, duration: 12 days, F
  NOAEL: 1 mg/kg-day
Mus musculus; developmental, duration: 12 days, F, Developmental: 7-10% decrease in litter weight on PND 2
  LOAEL: 0.5 mg/kg-day
Mus musculus; developmental, duration: 17 days, F
  NOAEL: 10 mg/kg-day
Mus musculus; developmental, duration: 17 days, F, CD1, Developmental: 3 mg/kg/day: reduced weight gain through lactation (14.8% in males and 20.6% in females) / delayed eye opening and hair …
  LOAEL: 3 mg/kg-day and 5 mg/kg-day
Mus musculus; [1]
  LOAEL: 5 mg/kg-day
  NOAEL: 1 mg/kg-day
Mus musculus; developmental, duration: 17 days, F, CD1, Developmental: Decreased birth weight (approximately 8%) and body weight at weaning (24%)
  LOAEL: 5 mg/kg-day
Mus musculus; developmental, duration: 17 days, F, CD1, Developmental: Delayed mammary gland development in female pups on PNDs 22-63 + Reproductive: Delayed mammary gland lactational …
  LOAEL: 0.0024 mg/kg-day
Mus musculus; developmental, duration: 17 days, F, CD1, Developmental: Delayed mammary gland development in female pups on PNDs 22-63 and at 18 months
  LOAEL: 3 mg/kg-day
Mus musculus; developmental, duration: 17 days, F, CD1, Developmental: Increased prenatal loss / 40% reduced neonatal body weight on PNDs 5 and 10
  LOAEL: 5 mg/kg-day
Mus musculus; developmental, duration: 17 days, F, CD1, Reproductive: Delayed mammary gland differentiation
  LOAEL: 5 mg/kg-day
Mus musculus; [2]
  LOAEL: 0.6 mg/kg-day
  NOAEL: 0.3 mg/kg-day
Mus musculus; reproduction developmental, duration: 11 days, F, CD1, Body Weight: No alterations in dams dosed on GDs 15-17 + Hepatic: Increase in relative liver weight in dams dosed on GDs 13-17, 10-17, or 7-…
  NOAEL: 20 mg/kg-day
Mus musculus; reproduction developmental, duration: 17 days, F, CD1, Hepatic: Significant increase in relative and absolute maternal liver weight on PND 22 at ?3 mg/kg/day
  NOAEL: 5 mg/kg-day
Mus musculus; reproduction developmental, duration: 17 days, F, CD1, Reproductive: Delayed mammary gland lactational differentiation in dams on PND 22
  LOAEL: 1 mg/kg-day
Mus musculus; reproduction developmental, duration: 17 days, F, Hepatic: Increased absolute and relative liver weight of dams on PND 22 at ?1 mg/kg/day
  NOAEL: 20 mg/kg-day
Mus musculus; reproduction developmental, duration: 17 days, M, CD1, 38% increase in absolute liver weight at ?1 mg/kg/day
  NOAEL: 1 mg/kg-day
Mus musculus; [3]
  LOAEL: 10 mg/kg-day
  NOAEL: 5 mg/kg-day
Mus musculus; short-term, duration: 14 days, M/F, CD1, Hepatic: 123-155% increase in absolute liver weight in 14 days at ?5.3 mg/kg/day
  NOAEL: 537 mg/kg-day
Mus musculus; [4]
  LOAEL: 10 mg/kg-day
  NOAEL: 3 mg/kg-day
Mus musculus; short-term, duration: 14 days, M, CD1, Hepatic: Decreased serum cholesterol levels at ?0.3 mg/kg/day
  NOAEL: 30 mg/kg-day
Mus musculus; [5]
  LOAEL: 15 mg/kg-day
  NOAEL: 7.5 mg/kg-day
Mus musculus; [6]
  LOAEL: 3.75 mg/kg-day
  NOAEL: 1.88 mg/kg-day
Mus musculus; short-term, duration: 21 days, M/F, CD1, Hepatic: 39-41% increase in absolute liver weight at ?5.4 mg/kg/day
  NOAEL: 5.4 mg/kg-day
Mus musculus; short-term, duration: 21 days, M, ICR
  NOAEL: 47 mg/kg-day
Mus musculus; [7]
  LOAEL: 18 mg/kg-day
  NOAEL: 2.6 mg/kg-day
Mus musculus; [8]
  LOAEL: 47 mg/kg-day
  NOAEL: 18 mg/kg-day
Mus musculus; short-term, duration: 28 days, F, CD1, 5/5 died before 4th week of study
  LOAEL: 58 mg/kg-day
Mus musculus; short-term, duration: 28 days, F, CD1, Body Weight: Males: final body weight 20% lower than controls / females: final body weight 25% lower than controls
  LOAEL: 5.8 mg/kg-day
Mus musculus; short-term, duration: 28 days, M/F, CD1, Hepatic: 3-fold or greater increased absolute and relative liver weight and hepatocellular hypertrophy at ?5.4 mg/kg/day
  NOAEL: 18 mg/kg-day
Mus musculus; short-term, duration: 28 days, M, CD1, Body Weight: Males: final body weight 20% lower than controls / females: final body weight 25% lower than controls
  LOAEL: 5.4 mg/kg-day
Mus musculus; short-term, duration: 28 days, M, CD1, Body Weight: Weight loss (86% of controls)
  LOAEL: 9.6 mg/kg-day
Mus musculus; short-term, duration: 28 days, M, CD1, Body Weight: Weight loss (86% of controls) + Immunotoxicological: Decreased response to sRBC, decreased number of splenic and thymic …
  NOAEL: 0.96 mg/kg-day
Mus musculus; short-term, duration: 28 days, M, CD1, Death: 4/5 died before end of 4th week
  LOAEL: 54 mg/kg-day
Mus musculus; short-term, duration: 28 days, M, CD1, Death: 5/5 died before 2nd week of study
  LOAEL: 180 mg/kg-day
Mus musculus; [9]
  LOAEL: 0.96 mg/kg-day
  NOAEL: 0.29 mg/kg-day
Mus musculus; short-term, duration: 28 days, M, CD1, Immunotoxicological: Decreased response to sRBC, decreased number of splenic and thymic lymphocytes
  LOAEL: 9.6 mg/kg-day
Rattus norvegicus; duration: 1 hours, inhalation, M/F, albino, Neurological: Excessive salivation + Ocular: Red material around the eyes / lacrimation + Respiratory: Red nasal discharge / dry rales
  LOAEL: 18600 mg/m3
Rattus norvegicus; duration: 4 hours, inhalation, M, CD, Body Weight: Weight loss for 1-2 days after exposure (data not shown) + Respiratory: Pulmonary edema
  LOAEL: 380 mg/m3
Rattus norvegicus; duration: 4 hours, inhalation, M, CD, Death: LC50
  LOAEL: 980 mg/m3
Rattus norvegicus; duration: 4 hours, inhalation, M, CD, Gastrointestinal: Stomach irritation
  LOAEL: 380 mg/m3
Rattus norvegicus; duration: 4 hours, inhalation, M, CD, Hepatic: Liver enlargement at 810 mg/m3 / no histological alterations
  NOAEL: 810 mg/m3
Rattus norvegicus; [10]
  LOAEL: 810 mg/m3
  NOAEL: 380 mg/m3
Rattus norvegicus; [11]
  LOAEL: 10 mg/m3
  NOAEL: 1 mg/m3
Rattus norvegicus; duration: 15 hours, inhalation, F, Sprague-Dawley, Death: 3/12 deaths on GDs 12, 13, and 17
  LOAEL: 25 mg/m3
Rattus norvegicus; duration: 15 hours, inhalation, F, Sprague-Dawley, Hepatic: 18% increase absolute liver weight at 25 mg/m3
  NOAEL: 25 mg/m3
Rattus norvegicus; duration: 1 days, dermal, M/F, CD, Body Weight: 5-7% transient weight loss
  LOAEL: 3000 mg/kg-day
Rattus norvegicus; duration: 1 days, dermal, M/F, CD, Dermal: Mild skin irritation
  LOAEL: 5000 mg/kg-day
